≈ marks a conversion by molar mass, not a printed value. Calls of active or inactive are those of the source. The rule behind the calls is not given here.
Experiments:
Pseudomonas aeruginosa = experiment: Antibacterial activity against Pseudomonas aeruginosa ATCC 9027 assessed as inhibition of visible growth measured after 18 to 24 hrs by broth dilution method; assay type: functional; conditions: time 18-24 hrs
Klebsiella pneumoniae [1] = experiment: Antibacterial activity against Klebsiella pneumoniae ATCC 14581 assessed as inhibition of visible growth measured after 18 to 24 hrs by broth dilution method; assay type: functional; conditions: time 18-24 hrs
Staphylococcus aureus [2] = experiment: Antibacterial activity against methicillin-resistant Staphylococcus aureus NCTC 10442 assessed as inhibition of visible growth measured after 18 to 24 hrs by broth dilution method; assay type: functional; conditions: time 18-24 hrs
Staphylococcus aureus [3] = experiment: Antibacterial activity against methicillin-resistant Staphylococcus aureus N315 assessed as inhibition of visible growth measured after 18 to 24 hrs by broth dilution method; assay type: functional; conditions: time 18-24 hrs
Cell membrane [4] = experiment: Induction of membrane depolarization in Escherichia coli ATCC 25922 assessed as increase in fluorescence intensity at 4 to 8 times MIC measured for 60 mins by DiSC3(5) dye based fluorescence method; assay type: subcellular
[5] = Selectivity ratio, HC50 for hemolytic activity in rabbit RBC to MIC for antibacterial activity against Pseudomonas aeruginosa ATCC 9027; assay type: toxicity; conditions: erythrocytes
Staphylococcus aureus [6] = experiment: Antibacterial activity against Staphylococcus aureus ATCC 29213 assessed as inhibition of visible growth measured after 18 to 24 hrs by broth dilution method; assay type: functional; conditions: time 18-24 hrs
Klebsiella pneumoniae [7] = experiment: Antibacterial activity against Klebsiella pneumoniae ATCC 10031 assessed as inhibition of visible growth measured after 18 to 24 hrs by broth dilution method; assay type: functional; conditions: time 18-24 hrs
Escherichia coli [8] = experiment: Antibacterial activity against Escherichia coli ATCC 25922 assessed as inhibition of visible growth measured after 18 to 24 hrs by broth dilution method; assay type: functional; conditions: time 18-24 hrs
[9] = Cytotoxicity against mouse NCTC clone 929 cells assessed as cell viability after 24 hrs incubation byCCK-8 assay; assay type: toxicity, cell-based
[10] = Cytotoxicity against HEK293 cells assessed as cell viability after 24 hrs incubation byCCK-8 assay; assay type: toxicity, cell-based; conditions: human
Acinetobacter baumannii [11] = experiment: Antibacterial activity against Acinetobacter baumannii R2889 assessed as inhibition of visible growth measured after 18 to 24 hrs by broth dilution method; assay type: functional; conditions: time 18-24 hrs
[12] = Haemolytic activity in rabbit red blood cells incubated for 60 mins by k multi-mode reader relative to control; assay type: toxicity, cell-based, Oryctolagus cuniculus, Erythrocyte
Cell membrane [13] = experiment: Induction of membrane depolarization in Staphylococcus aureus ATCC 29213 assessed as increase in fluorescence intensity at 4 to 8 times MIC measured for 60 mins by DiSC3(5) dye based fluorescence method; assay type: subcellular
Cell membrane [14] = experiment: Induction of outer membrane permeability in Escherichia coli ATCC 25922 assessed as increase fluoresence intensity at 4 to 8 times of MIC measured for 60 mins by NPN uptake assay; assay type: subcellular
Acinetobacter baumannii [15] = experiment: Antibacterial activity against Acinetobacter baumannii ATCC 17978 assessed as inhibition of visible growth measured after 18 to 24 hrs by broth dilution method; assay type: functional; conditions: time 18-24 hrs
Escherichia coli [16] = experiment: Drug resistance development in Escherichia coli ATCC 25922 assessed as fold change in MIC measured after 20 passages; assay type: functional
Escherichia coli [17] = experiment: Antibacterial activity against Escherichia coli ATCC 25922 assessed as reduction in bacterial load at 8 time of MIC measured with in 30 mins by time kill assay; assay type: functional; conditions: 0.5 h

**Q.** For `CCCCCCCCC(=O)NCc1ccc(O)c(OC)c1` [NONIVAMIDE], which MIC (Pseudomonas aeruginosa) is on record?
**A.** The MIC was over 50 µg/mL.

**Q.** And the MIC (Klebsiella pneumoniae [1])?
**A.** The MIC was over 50 µg/mL.

**Q.** And the MIC (Staphylococcus aureus [2])?
**A.** The MIC was over 50 µg/mL.

**Q.** What about the MIC (Staphylococcus aureus [3]) of the same compound?
**A.** The MIC was over 50 µg/mL.

**Q.** What about the Activity (Cell membrane [4]) of the same compound?
**A.** The Activity was “inactive”.

**Q.** What about the MIC [5] of the same compound?
**A.** Its MIC is over 50 µg/mL.

**Q.** What about the MIC (Staphylococcus aureus [6]) of the same compound?
**A.** Its MIC is over 50 µg/mL.

**Q.** What about the MIC (Klebsiella pneumoniae [7]) of the same compound?
**A.** The MIC was over 50 µg/mL.

**Q.** What about the MIC (Escherichia coli [8]) of the same compound?
**A.** The MIC was over 50 µg/mL.

**Q.** What about the CC50 at 24 h [9] of the same compound?
**A.** Its CC50 at 24 h is 59 µg/mL (≈ 201 µM).

**Q.** What about the CC50 at 24 h [10] of the same compound?
**A.** The CC50 at 24 h was 62 µg/mL (≈ 211 µM).

**Q.** And the MIC (Acinetobacter baumannii [11])?
**A.** Its MIC is over 50 µg/mL.

**Q.** What about the HC5 ([12]; erythrocyte, 1 h) of the same compound?
**A.** Its HC5 is over 200 µg/mL.

**Q.** And the HC50 at 1 h ([12]; rabbit red blood cells)?
**A.** Its HC50 at 1 h is over 200 µg/mL.

**Q.** What about the Activity (Cell membrane [13]) of the same compound?
**A.** The Activity was “inactive”.

**Q.** What about the Activity (Cell membrane [14]) of the same compound?
**A.** Its Activity is “inactive”.

**Q.** What about the MIC (Acinetobacter baumannii [15]) of the same compound?
**A.** Its MIC is over 50 µg/mL.

**Q.** Which “fold change (FC)” value (Escherichia coli [16]) does the source give for `CC1(C)S[C@@H]2[C@H](NC(=O)[C@H](N)c3ccc(O)cc3)C(=O)N2[C@H]1C(=O)O` [AMOXICILLIN] here?
**A.** Its value is 16.

**Q.** And the Activity (Escherichia coli [17])?
**A.** Its Activity is 0.29 log10CFU/ml.

— ChEMBL document CHEMBL5236632, “Membrane-Active Nonivamide Derivatives as Effective Broad-Spectrum Antimicrobials: Rational Design, Synthesis, and Biological Evaluation” (J Med Chem, 2022)
